Data from ChEMBL document CHEMBL1201862, “PubChem BioAssay data set” (2004).
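Protocol summary: plate cells (96-well), add compound at 5 concentrations, incubate 48 h, interpolate endpoints linearly. GI50 is the concentration that inhibits growth by half.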 Active and inactive are the calls of the source. Rule as the data show it: active = GI50 up to about 1.1 µM and inactive = higher.

Experiments:
Assay in all cases: DTP human tumour cell line panel, 48 h
MOLT-4 = test system: MOLT-4
HL-60 = test system: HL-60
HOP-92 = test system: HOP-92
IGROV-1 = test system: IGROV-1
CAKI-1 = test system: CAKI-1
OVCAR-5 = test system: OVCAR-5
KM12 = test system: KM12
UACC-257 = test system: UACC-257
TK-10 = test system: TK-10
HCT-116 = test system: HCT-116
A498 = test system: A498
NCI-H522 = test system: NCI-H522
KM-20L2 = test system: KM-20L2
RPMI-8226 = test system: RPMI-8226
DMS-114 = test system: DMS-114
SR = test system: SR
Malme-3M = test system: Malme-3M
HCT-15 = test system: HCT-15
SF-268 = test system: SF-268
HOP-62 = test system: HOP-62

Row | SMILES | GI50 (MOLT-4) | GI50 (HL-60) | GI50 (HOP-92) | GI50 (IGROV-1) | GI50 (CAKI-1) | GI50 (OVCAR-5) | GI50 (KM12) | GI50 (UACC-257) | GI50 (TK-10) | GI50 (HCT-116) | GI50 (A498) | GI50 (NCI-H522) | GI50 (KM-20L2) | GI50 (RPMI-8226) | GI50 (DMS-114) | GI50 (SR) | GI50 (Malme-3M) | GI50 (HCT-15) [µM] | GI50 (SF-268) | GI50 (HOP-62)
1 | COC(=O)/C(=N\N)C(C(=O)C(=O)Nc1nnc(S)[nH]1)c1nc2ccc([N+](=O)[O-])cc2nc1O (stereo not given) | > 100 µM (inactive) | > 100 µM (inactive) | > 100 µM (inactive) | > 100 µM (inactive) | > 100 µM (inactive) | > 100 µM (inactive) | > 100 µM (inactive) | > 100 µM (inactive) | > 100 µM (inactive) | > 100 µM (inactive) | > 100 µM (inactive) | > 100 µM (inactive) | > 100 µM (inactive) | > 100 µM (inactive) | > 100 µM (inactive) | > 100 µM (inactive) | > 100 µM (inactive) | > 100 | > 100 µM (inactive) | > 100 µM (inactive)
2 | CO[C@@H]1C=C[C@@]23c4cc5c(cc4C(=O)O[C@H]2CN(C)[C@H]3C1)OCO5 | > 100 µM (inactive) | > 100 µM (inactive) | > 100 µM (inactive) | > 100 µM (inactive) | – | > 100 µM (inactive) | > 100 µM (inactive) | > 100 µM (inactive) | > 100 µM (inactive) | > 100 µM (inactive) | > 100 µM (inactive) | > 100 µM (inactive) | > 100 µM (inactive) | > 100 µM (inactive) | > 100 µM (inactive) | > 100 µM (inactive) | – | – | > 100 µM (inactive) | –
3 | C[N+](C)(C)CC(=O)N/N=C(/Cc1nc2ccc(Cl)cc2nc1O)C1=NS(=O)(=O)c2cc(S(N)(=O)=O)c(Cl)cc2N1 | > 100 µM (inactive) | > 100 µM (inactive) | – | > 100 µM (inactive) | – | > 100 µM (inactive) | > 100 µM (inactive) | > 100 µM (inactive) | > 100 µM (inactive) | > 100 µM (inactive) | > 100 µM (inactive) | > 100 µM (inactive) | > 100 µM (inactive) | > 100 µM (inactive) | > 100 µM (inactive) | > 100 µM (inactive) | > 100 µM (inactive) | – | > 100 µM (inactive) | > 100 µM (inactive)
4 | O=C1OC2C=CC1C1(CCOC1=O)C2 (stereo not given) | > 100 µM (inactive) | > 100 µM (inactive) | > 100 µM (inactive) | 48.8 µM (inactive) | > 100 µM (inactive) | > 100 µM (inactive) | > 100 µM (inactive) | > 100 µM (inactive) | > 100 µM (inactive) | > 100 µM (inactive) | > 100 µM (inactive) | > 100 µM (inactive) | > 100 µM (inactive) | > 100 µM (inactive) | > 100 µM (inactive) | > 100 µM (inactive) | > 100 µM (inactive) | > 100 | > 100 µM (inactive) | > 100 µM (inactive)
5 | O=S(=O)(c1ccccc1)C1CN(Cc2ccccc2)CCN(Cc2ccccc2)C1 | 7.24 µM (inactive) | 5.92 µM (inactive) | – | 35.8 µM (inactive) | 24.4 µM (inactive) | > 100 µM (inactive) | 58.3 µM (inactive) | 26.6 µM (inactive) | 63.4 µM (inactive) | 18.1 µM (inactive) | > 100 µM (inactive) | 8 µM (inactive) | 35.2 µM (inactive) | 4.55 µM (inactive) | 10 µM (inactive) | 7.76 µM (inactive) | 25.5 µM (inactive) | 25 | 29.4 µM (inactive) | > 76.2 µM (inactive)
6 | COc1ccccc1OCC(COC(=O)Nc1ccc(C)cc1)OC(=O)Nc1ccc(C)cc1 (stereo not given) | 18.9 µM (inactive) | 15 µM (inactive) | 7.59 µM (inactive) | 26 µM (inactive) | 13.1 µM (inactive) | 21.8 µM (inactive) | 20.6 µM (inactive) | 19.3 µM (inactive) | 18.4 µM (inactive) | 17.5 µM (inactive) | > 100 µM (inactive) | 16.1 µM (inactive) | 23.1 µM (inactive) | 16.3 µM (inactive) | 14.7 µM (inactive) | 22.4 µM (inactive) | 17.4 µM (inactive) | 15.8 | 19.5 µM (inactive) | 38.5 µM (inactive)
7 | [O-][n+]1c2cc(CBr)c(CBr)cc2[n+]([O-])c2c(O)cccc21 | 0.344 µM (active) | 0.388 µM (active) | 1.05 µM (active) | 4.02 µM (inactive) | 2.87 µM (inactive) | 1.95 µM (inactive) | 1.9 µM (inactive) | 2.38 µM (inactive) | 6.07 µM (inactive) | 1.53 µM (inactive) | 12.5 µM (inactive) | 0.538 µM (active) | 3.07 µM (inactive) | 1.53 µM (inactive) | 1.69 µM (inactive) | 0.248 µM (active) | 1.91 µM (inactive) | 1.56 | 2.84 µM (inactive) | 20.1 µM (inactive)
8 | Cc1ccc(NC(=O)C(=O)C(C(=O)/C=C/c2ccccc2)C2OC(=O)c3ccccc32)c(C)c1 (stereo not given) | 77.4 µM (inactive) | > 100 µM (inactive) | > 100 µM (inactive) | > 100 µM (inactive) | > 100 µM (inactive) | > 100 µM (inactive) | > 100 µM (inactive) | > 100 µM (inactive) | > 100 µM (inactive) | > 100 µM (inactive) | > 100 µM (inactive) | > 100 µM (inactive) | > 100 µM (inactive) | 60.4 µM (inactive) | > 100 µM (inactive) | 45.4 µM (inactive) | > 100 µM (inactive) | > 100 | > 100 µM (inactive) | > 100 µM (inactive)
9 | O=[N+]([O-])c1ccc(C2CC(c3ccccc3Cl)=Nc3ccccc3S2)cc1 (stereo not given) | 1.56 µM (inactive) | 2.01 µM (inactive) | 6 µM (inactive) | 7.23 µM (inactive) | 4.46 µM (inactive) | 12.9 µM (inactive) | 3.08 µM (inactive) | 12 µM (inactive) | 18.8 µM (inactive) | 1.96 µM (inactive) | 1.87 µM (inactive) | 2.89 µM (inactive) | 4.74 µM (inactive) | 1.66 µM (inactive) | 2.19 µM (inactive) | 2.01 µM (inactive) | 10.9 µM (inactive) | 5.35 | 4.15 µM (inactive) | 22.3 µM (inactive)
10 | CC1/C=C/[C@@]2(C)CCC(C(C)(C)O)C2C(O)C[C@](C)(O)/C=C/C1 (stereo not given in full) | > 100 µM (inactive) | 86.1 µM (inactive) | > 100 µM (inactive) | > 100 µM (inactive) | > 100 µM (inactive) | > 100 µM (inactive) | > 100 µM (inactive) | > 100 µM (inactive) | > 100 µM (inactive) | > 100 µM (inactive) | > 100 µM (inactive) | – | > 100 µM (inactive) | > 100 µM (inactive) | > 100 µM (inactive) | 66.5 µM (inactive) | > 100 µM (inactive) | > 100 | > 100 µM (inactive) | > 100 µM (inactive)
11 | COC1C(O)C(C)OC(OC2C(Oc3cccc4c(O)c5c(=O)oc6ccc(C)c7c(=O)oc(c34)c5c67)OC(C)C(O)C2O)C1O (stereo not given) | 0.488 µM (active) | 2.38 µM (inactive) | 0.233 µM (active) | 1.87 µM (inactive) | – | 4.56 µM (inactive) | 1.64 µM (inactive) | 2.31 µM (inactive) | 3.1 µM (inactive) | 0.731 µM (active) | 2.04 µM (inactive) | 0.871 µM (active) | 2.52 µM (inactive) | 1.39 µM (inactive) | 0.918 µM (active) | 0.373 µM (active) | 1.35 µM (inactive) | 3.03 | 0.904 µM (active) | 1.77 µM (inactive)
12 | CN(C)CCN1C(=O)c2cccc3cc([N+](=O)[O-])cc(c23)C1=O [MITONAFIDE] | 0.0406 µM (active) | 0.0676 µM (active) | 0.255 µM (active) | 0.5 µM (active) | 0.153 µM (active) | 0.762 µM (active) | 0.321 µM (active) | 0.838 µM (active) | 2.13 µM (inactive) | 0.261 µM (active) | 0.167 µM (active) | 0.281 µM (active) | 0.405 µM (active) | 0.443 µM (active) | 0.223 µM (active) | 0.129 µM (active) | 0.404 µM (active) | 0.29 | 0.324 µM (active) | 0.146 µM (active)
